Assay results reported in US10206900B2, “Treatments for fibrotic diseases” (MOR RESEARCH APPLICATIONS LTD., priority 2013, dated 2019).

What was measured:
[1] = system: RPE cells; assay: α-SMA expression (immunostaining) upon TGF-β1 stimulation; type: cell-based; details: 5Z-7-oxozeaenol 1 μM pretreatment 1 hour, TGF-β1 2.5 ng/ml, serum-free
Protocol: FIGS. 2A-2C TAK1 regulates RPE cells EMT phenotype upon TGF-β stimulation. FIG. 2A: RPE cells were serum-starved for 16 hours, pretreated with 5Z-7-oxozeaenol (1 μM) or left untreated for 1 hour. The cells were then treated with TGF-β1 (2.5 ng/ml) as described herein for 24 h and immunostained with α-SMA antibodies (red) and DAPI (blue). Representative photographs of three independent experiments. The histogram in the bottom panel represents quantification of α-SMA antibody pixel intensity. FIG. 2B: RPE cells were serum-starved for 16 hours, then treated with mitomycin C (10 ng/ml) for 3 h. Thereafter, pretreated with 5Z-7-oxozeaenol (1 μM) or Dimethyl sulfoxide (DMSO) for 1 hour. Following this process a scratch was performed in the cell monolayer and the serum free medium was supplemented with TGF-β1 (2.5 ng/ml) or left unsupplemented. Scratches were photo-documented at the indicated times (top panel) and their width was measured using Image-J software. […] Bars are Mean±SD. FIG. 2C: RPE cells were serum-starved for 16 hours then pretreated with 5Z-7-oxozeaenol (1 μM) or SB431542 (10 μM), or DMSO for 1 hour. […] Total MMP-9 activities were processed by gelatin zymography (top panel) and the band intensity values were calculated by Quantity One® 1-D analysis software. […] Data is expressed as the Mean±SD. […]

[2] = system: MMP-9; assay: MMP-9 activity by gelatin zymography in RPE cell supernatants; type: cell-based; details: RPE cells, pretreatment 1 μM, TGF-β1 2.5 ng/ml, 24 hours; TGF-β1 alone 3.2 fold
Protocol: FIGS. 2A-2C TAK1 regulates RPE cells EMT phenotype upon TGF-β stimulation. FIG. 2A: RPE cells were serum-starved for 16 hours, pretreated with 5Z-7-oxozeaenol (1 μM) or left untreated for 1 hour. The cells were then treated with TGF-β1 (2.5 ng/ml) as described herein for 24 h and immunostained with α-SMA antibodies (red) and DAPI (blue). Representative photographs of three independent experiments. The histogram in the bottom panel represents quantification of α-SMA antibody pixel intensity. FIG. 2B: RPE cells were serum-starved for 16 hours, then treated with mitomycin C (10 ng/ml) for 3 h. Thereafter, pretreated with 5Z-7-oxozeaenol (1 μM) or Dimethyl sulfoxide (DMSO) for 1 hour. Following this process a scratch was performed in the cell monolayer and the serum free medium was supplemented with TGF-β1 (2.5 ng/ml) or left unsupplemented. Scratches were photo-documented at the indicated times (top panel) and their width was measured using Image-J software. […] Bars are Mean±SD. FIG. 2C: RPE cells were serum-starved for 16 hours then pretreated with 5Z-7-oxozeaenol (1 μM) or SB431542 (10 μM), or DMSO for 1 hour. […] Total MMP-9 activities were processed by gelatin zymography (top panel) and the band intensity values were calculated by Quantity One® 1-D analysis software. […] Data is expressed as the Mean±SD.

[3] = system: Smad2/3; assay: Smad2/3 phosphorylation by immuno-blot in RPE cells; type: cell-based
Protocol: FIG. 4A-4C: Inhibition of TAK1 abolishes the activation of TGF-β cascades. FIG. 4A: Serum-starved RPE cells were pretreated with or without with 5Z-7-oxozeaenol (1 μM) for 1 hour and then with TGF-β (2.5 ng/ml) for the indicated times. Total protein extracts were analyzed by western blot using the indicated antibodies. […] FIG. 4B: Levels of phospho-Smad2/3 were quantified and normalized to total Smad2/3 FIG. 4C: Statistical analysis of p-p38 and p-Smad3 activation normalized to p38 and Smad3 respectively, with or without TGF-β stimulation. The histograms present results of 5 independent experiments. Statistics were computed using student t-test (Two tailed distribution equal variance). Data is expressed as the Mean±SD. RPE cells were treated with or without 5Z-7-oxozeaenol followed by TGF-β1 treatment and Smad2/3 phosphorylation patterns were examined by immuno-blots. […] Upon TGF-β1 stimulation, the phosphorylation of p38 increased, reaching a peak at 60 min (FIGS. 4A and C).

[4] = system: RPE cells; assay: Collagen lattice contraction upon TNFα stimulation; type: cell-based; details: 1 μM before 50 ng/ml TNFα, 72 hours
Protocol: FIG. 9: TAK1 regulates RPE cells contraction upon TNFα stimulation. […] RPE cells were seeded in collagen lattices in serum starvation medium. The cells were pretreated with 1 μM 5Z-7 or 1 hour before adding 50 ng/ml TNFα. Lattice were photo-documented after 72 hours and measured using ImajeJ software. The transition of RPE cells to myofibroblasts is characterized, among other aspects, by increased contractile activity (Umazume et al., Invest Ophthalmol Vis Sci 2013, 54:1150-1159; Sakamoto et al., Curr Eye Res 1994, 13:451-459; West-Mays et al., Int J Biochem Cell Biol 2006, 38:1625-1631; Ma et al., Clinical & experimental ophthalmology 2012, 40:e76-86). To examine whether TAK1 is a general regulator of the EMT process affecting cell contractility, floating collagen matrix contraction assay was performed. The test was carried out in full serum with or without TAK1 inhibitor (FIGS. 5A and 5B). While in the control cells significant contraction was observed after 24 hours, reaching 50% of the initial size, TAK1 inhibition impaired the capacity of the cells to contract. The collagen lattice remained nearly 80% from the initial size (FIGS. 5A and B).

[5] = system: Smad2/3; assay: Smad2/3 phosphorylation by immuno-blot in W2b liver hepatocytes; type: cell-based; details: 1 μM for 1 hour, TGF-β 2.5 ng/ml
Protocol: (§1) FIG. 10: Inhibition of TAK1 abolishes the activation of TGF-β cascades in liver cells. TGF-β1 up-regulates-Smad 2/3 and p38 activation and E-cadherin expression via TAK1 activity in hepatic cells. W2B liver hepatocytes cells were treated with or without 5Z-7-oxozeaenol followed by TGF-β treatment and Smad2/3 and p38 phosphorylation patterns were examined by immuno-blots. W2b liver hepatocytes cells were treated with or without 5Z-7-oxozeaenol (1 μM) for 1 hour followed by TGF-β treatment (2.5 ng/ml) for the indicated times. Smad2/3 and p38 phosphorylation patterns were examined by immuno-blots as described above.

[6] = system: p38; assay: p38 phosphorylation by immuno-blot in W2b liver hepatocytes; type: cell-based; details: 1 μM for 1 hour, TGF-β 2.5 ng/ml
Protocol: as §1

[7] = system: c57Black mice; assay: Dispase-induced PVR in mice (H&E histology); type: in vivo; details: treated 96 hour post-dispase, H&E 96 hours later
Protocol: 96 hour post-treatment, the mice were further treated with 5Z-7-oxozeaenol left untreated, and 96 hours later, mice were sacrificed, eyes were enucleated and stained with hematoxylin and eosin (H&E). […] As shown in the middle panel, dispase caused PVR, manifested by loss of normal cellular architecture of the retina, presence of numerous inflammatory cells and presence of RPE cells throughout all retinal layers compared to the control (left panel). As shown in the right panel, treatment with 5Z-7-oxozeaenol maintained the normal retinal structure and prevented the development of the fibrotic response. 7-8 week old c57Black mice were treated or left untreated with dispase to generate PVR in the mice. 96 hour post-treatment, the mice were treated with 5Z-7-oxozeaenol or left untreated, and 96 hour later, mice were sacrificed, eye were […] and stained with hematoxylin and eosin (H&E).

COc1cc(O)c2c(c1)/C=C/C[C@H](O)[C@H](O)C(=O)/C=C\C[C@H](C)OC2=O [5Z-7-oxozeaenol]
TGF-β1-stimulated α-SMA expression [1]: significantly attenuated
MMP-9 activity, fold higher than the control group [2]: 1.59 fold
Smad2/3 activation (phospho-Smad2/3) ([3]; 1 μM for 1 hour then TGF-β 2.5 ng/ml): barely detectable
ratio of phospho-Smad2/3 to total Smad2/3 ([3]; 1 μM, TGF-β1-stimulated, each time point): abolished Smad2/3 activation
collagen contraction after EMT stimulation by TNFα [4]: significantly reduced collagen contraction
Smad2/3 activation [5]: barely detectable
p38 activation [6]: barely detectable
development of the fibrotic response / retinal structure (PVR) [7]: prevents the development of the fibrotic response
